{
  "source": "patent US7427391B2",
  "about": "“Formulations for use in medical and diagnostic procedures” (priority 2001, dated 2008)",
  "format_in_all_cases": "in vivo, human",
  "key": {"[1]": {"test_system": "small bowel", "assay": "Blinded qualitative rating of bowel distension on MR images by five radiologists (Example 4)", "settings": "six volunteers; consensus of five blinded radiologists", "text": "For a qualitative assessment, MR images of all 5 examinations for each volunteer were presented as hardcopies in a randomized and blinded fashion to five radiologists. They were asked to rate the images regarding bowel distention in an ascending order for each volunteer. The qualitative assessment was done by consensus."}, "[2]": {"test_system": "small bowel", "assay": "MR (TrueFISP) measurement of small bowel loop diameters after 1500 ml oral contrast solution (Example 4)", "settings": "for Mean small bowel diameter / Mean small bowel diameter, AV (average of all six volunteer examinations): 1500 ml orally over 45 minutes; for Mean small bowel diameter: MR TrueFISP; for Mean small bowel diameter, AV (average of all six volunteer examinations): average of six volunteers; for Small bowel distension, comparison in words: six volunteers, paired t-test, p<0.01", "description": "Six healthy volunteers (three female and three male; age range 21-28 years) without known contraindications to MR imaging were included in this study, which was conducted in accordance with all guidelines set forth by the approving institutional review board. Presence of gastrointestinal disease, previous abdominal surgery and symptoms of gastrointestinal disorders such as post-prandiol belching, nausea or early satiety were excluded. Each volunteer was examined on five different occasions. […] The LBG and Metamucil concentrations were chosen as high as possible within the confines of an unproblematic ingestion regarding viscosity and flavor, while choice of the mannitol concentration was based on previous studies. To assure homogenization of bowel activity, all exams were performed following 8 hour fasts. Prior to each exam, 1500 ml of the respective contrast solution were orally ingested over 45 minutes at a steady, evenly distributed rate. To ensure a consistent ingestion, volunteers were asked to drink 150 ml every four to five minutes. To enhance gastric emptying, 100 mg erythromycin (Abbott Pharmaceutics, Wiesbaden, Germany) were administered intravenously directly after the ingestion of the first 150 ml of the contrast solution. […] For signal reception a large ‘flex surface coils’ was used. Prior to the data acquisition neither spasmolytic agents nor paramagnetic contrast compounds were intravenously applied. […] Other sequence parameters included a field of view 35 cm, a slice thickness of 7 mm (25 slices) and an acquisition time of 24 seconds. Matrix size was 144×256, inter section gap amounted to 1 mm and the number of excitation was one. All 30 MR examinations were of diagnostic image quality. 1500 ml of each solution was ingested within the target time of 45 minutes. Images were quantitatively analyzed independently by two radiologists, who were blinded to the type of oral contrast employed. […] For the measurements bowel loops with maximal diameter were chosen. […] Subsequent analysis was based on mean small bowel diameters and their standard deviations. The effects of the analyzed oral contrast agents concerning small bowel distension were compared by a paired t-test. For the adaptation to multiple samples, a Bonferoni-correction was used."}, "[3]": {"assay": "Incidence of diarrhea in patients given contrast agent", "settings": "administered alone as a contrast agent", "description": "Further, it has been discovered that the formulations disclosed herein have the unexpected benefit of reducing incidents of diarrhea among patients. For example, when mannitol alone is administered as a contrast agent, approximately 99% of patients experience diarrhea, sometimes in severe form. As a result, the patient's health and/or hydration may be affected, and the exam may be compromised. […] It is believed that this is due to the thickening properties of the stabilizing agent. Accordingly, due to the patient not having to use the bathroom during the procedure, for example, the medical or diagnostic procedure can be performed with less patient discomfort and with less interference. Additionally, patient compliance with the medical or diagnostic procedure is increased due to decreased complications with the procedure."}, "[4]": {"assay": "Side-effect questionnaire (diarrhea, nausea) 24 hours after MR examination (Example 4)", "text": "Twenty-four hours after each MR examination, volunteers were asked by a standardized questionnaire based on a three-point scale (0=no side-effects, 1=mild side-effects, 2=severe side-effects) if either diarrhea or nausea have occurred in association with the contrast ingestion."}, "[5]": {"test_system": "stomach and small bowel", "assay": "CT-PET measurement of stomach, jejunum and ileum diameters in oncologic patients (Example 5)", "settings": "20 oncologic patients per agent", "description": "CT-PET examinations of 60 oncologic patients were performed on a combined CT-PET tomograph. Three different oral contrast agents were randomly assigned to 20 patients each: barium, water, and a solution of 2.5% mannitol and 0.2% locust bean gum (LBG). To compare the bowel distension abilities of the three agents, representative diameters each of the stomach, the jejunum and the ileum were measured by two radiologists. PET images were evaluated qualitatively for areas of increased bowel FDG uptake based on a four-point scale as well as quantitatively by determination of standard uptake values (SUV). To assess the effect of the different contrast agents onto the tracer activity concentration phantom measurements were performed.\nTable 3 Intestinal distension of the stomach, the jejunum, and the ileum induced by the contrast agents under investigation as well as SUV of the small intestine in the presence of the different contrast materials. Statistical significance was determined by unpaired Student's test based on 200 measurements each for the stomach, the jejunum, the ileum, and the SUV. Thus, a total of 800 measurements were performed for every contrast agent under investigation."}, "[6]": {"test_system": "small bowel", "assay": "MR imaging of small bowel after oral contrast solutions (Examples 1-3)", "settings": "oral application, FIGS. 1-9", "protocol": "Ten healthy volunteers with no history of gastrointestinal disorder underwent MR imaging following an eight hour fast. The examination was repeated on four different days using different osmotic substances in a randomized order: water, water spiked with mannitol (2.5%), Metamucil (0.7%) or locust bean gum (0.2%). Concentrations of the additives were chosen to avoid side-effects such as diarrhea.\nForty-five minutes prior to the examination, 50 mg of Erythromycin was applied intravenously to increase gastric emptying and the volunteers started ingesting the respective contrast substance. Coronal 2D measurements were performed in the prone patient position with a TRUFISP sequence (TR/TE/flip 3.2/1.6/70°) using 1.5 T scanner (Sonata, Siemens). The acquisition time amounted to 16 sec. Small bowel filling was quantified in two different ways: (1) determination of small bowel fluid by automatically measuring all pixels meeting the signal intensity of water, and (2) assessment of small bowel distension by manual measurement of 15 small bowel diameters and calculating an average value."}},
  "data": [
    {"smiles": "OC[C@@H](O)[C@@H](O)[C@H](O)[C@H](O)CO", "note": "[Mannitol, mannitol]", "values": [
      {"measurement": "Qualitative assessment of small bowel distension (rating)", "setting": "[1]", "value": "in four volunteers mannitol was rated better"},
      {"measurement": "Mean small bowel diameter", "setting": "[2]; Volunteer #1", "value": 23.7, "unit": "mm"},
      {"measurement": "Mean small bowel diameter", "setting": "[2]; Volunteer #2", "value": 22.9, "unit": "mm"},
      {"measurement": "Mean small bowel diameter", "setting": "[2]; Volunteer #3", "value": 19.2, "unit": "mm"},
      {"measurement": "Mean small bowel diameter", "setting": "[2]; Volunteer #4", "value": 19.3, "unit": "mm"},
      {"measurement": "Mean small bowel diameter", "setting": "[2]; Volunteer #5", "value": 22.9, "unit": "mm"},
      {"measurement": "Mean small bowel diameter", "setting": "[2]; Volunteer #6", "value": 19.6, "unit": "mm"},
      {"measurement": "Mean small bowel diameter, AV (average of all six volunteer examinations)", "setting": "[2]", "value": 21.3, "unit": "mm"},
      {"measurement": "Small bowel distension, comparison in words", "setting": "[2]", "value": "superior to Metamucil"},
      {"measurement": "Patients experiencing diarrhea", "setting": "[3]", "value": "approximately 99%"},
      {"measurement": "Diarrhea, in words", "setting": "[4]; of the three evaluated substances", "value": "consistently resulted in diarrhea"},
      {"measurement": "Diarrhea as side effect, volunteers reporting", "setting": "[4]; six volunteers, questionnaire 24 hours after MR examination", "value": "2 of 6"}
    ]},
    {"smiles": "O", "note": "[Water, water]", "values": [
      {"measurement": "Qualitative assessment of small bowel distension (rating)", "setting": "[1]", "value": "rated poorest"},
      {"measurement": "Intestinal distension of the ileum, Mean", "setting": "[5]", "value": 1.4},
      {"measurement": "Intestinal distension of the jejunum, Mean", "setting": "[5]", "value": 1.6},
      {"measurement": "Intestinal distension of the stomach, Mean", "setting": "[5]", "value": 6.1},
      {"measurement": "Mean small bowel diameter", "setting": "[2]; Volunteer #1", "value": 13.6, "unit": "mm"},
      {"measurement": "Mean small bowel diameter", "setting": "[2]; Volunteer #2", "value": 15.0, "unit": "mm"},
      {"measurement": "Mean small bowel diameter", "setting": "[2]; Volunteer #3", "value": 12.4, "unit": "mm"},
      {"measurement": "Mean small bowel diameter", "setting": "[2]; Volunteer #4", "value": 14.6, "unit": "mm"},
      {"measurement": "Mean small bowel diameter", "setting": "[2]; Volunteer #5", "value": 12.6, "unit": "mm"},
      {"measurement": "Mean small bowel diameter", "setting": "[2]; Volunteer #6", "value": 11.8, "unit": "mm"},
      {"measurement": "Mean small bowel diameter, AV (average of all six volunteer examinations)", "setting": "[2]", "value": 13.3, "unit": "mm"},
      {"measurement": "Small bowel distension, comparison in words", "setting": "[2]", "value": "significantly less small bowel distension"},
      {"measurement": "Diagnostic performance / lumen distention, in words", "setting": "[6]", "value": "does not achieve acceptable or diagnostic results"}
    ]}
  ]
}
